Test results taken from PubChem BioAssay AID2060513 (Molecular Pharmacology Branch, DTP, NCI, 2025).

System: 299254-011-R-J1-PDC complex spheroids viability
Experiment: Anticancer human tumor 299254-011-R-J1-PDC patient-derived melanoma cell line growth inhibition [GQUAD]
Details: for IC50: curve of first compound; for viability, T/C: stronger effect = lower value
Description: DNA G-quadruplex Stabilizer Agents in Combinations in Complex Spheroids
A high-throughput screen of multi-cell type tumor spheroids was designed to identify active combinations of DNA G-quadruplex stabilizer agents and targeted small molecules. Complex spheroids include a stromal component modeled by human endothelial cells (HUVEC) and fibroblasts modeled by human mesenchymal stem cells (MSCs). The concentration ranges selected for each drug and investigational agent were based upon clinically achievable concentrations if the clinical Cmax of the agent was known.
Compounds. The drugs and investigational agents: pidnarulex (CX-5461; NSC782164), APTO-253 (NSC789042), BRACO-19 (NSC847499), peposertib (NSC802822), ceralasertib (NSC780249), elimusertib (NSC800525), camonsertib (NSC841442), AZD-1390 (NSC803789), olaparib (NSC753686), talazoparib (NSC767125), ART-558 (NSC835418), sotorasib (NSC818433), MRTX-1133 (NSC836407), SN-38 (NSC673596), topotecan (NSC609699), etoposide (NSC141540), doxorubicin (NSC123127), gemcitabine (NSC613327), 5-fluorouracil (NSC19893), paclitaxel (NSC125973), vemurafenib (NSC761431), panobinostat (NSC761190), R-306465 (JNJ-16241199; NSC773264), adavosertib (NSC754352), TP-3654 (NSC805149), carboplatin (NSC241240), KSQ-4279 (NSC840948), and staurosporine (NSC755774) were obtained from the National Cancer Institute (NCI) Developmental Therapeutics Program Chemical Repository (34). The FDA-approved anticancer drug set is available from the NCI Developmental Therapeutics Program. […] The stock solutions were prepared in dimethyl sulfoxide (DMSO, Sigma-Aldrich, St. Louis, MO, cat. D2650) at 800-fold the tested concentration and stored at -70 degrees C prior to their use. All drugs and investigational agents were tested over a range starting from a high concentration at or near the clinical Cmax and decreasing in half-log increments. If the clinical Cmax for an agent had not been determined, the highest concentration tested was 10 microM.
2.3 Cell Culture. All cells were maintained in an incubator at 37 degrees C and 5% CO2 with 95% humidity. The PDC lines were cultured according to standard operating procedures established by the NCI PDMR. All PDCs were thawed and cultured in Matrigel-coated flasks prepared with a working solution of 1X Ham's F-12 nutrient mix, without supplementation (Invitrogen, cat. 11765054), 100 U/mL penicillin-streptomycin (Invitrogen, cat. 15140122), and 2.5% Matrigel (Corning Inc., cat. 354248) for the first three passages. The 857933-349-R-J2-PDC line was cultured in 6C/Colon 1B media, which includes advanced DMEM/F-12 (Thermo Fisher Scientific, cat. 12634028), 10 mM HEPES (Thermo Fisher Scientific, cat. 15630080), 1X GlutaMAX supplement (Thermo Fisher Scientific, cat. 35050061), 0.1 mg/mL primocin (InvivoGen, cat. ant-pm-2), 10% defined fetal bovine serum, heat inactivated (HyClone Laboratories Inc., cat. SH30070.03HI), 50% L-WRN conditioned media (ATCC, cat. CRL-3276), 1.25 mM N-Acetyl-L-cysteine (Sigma-Aldrich, cat. A9165), 10 mM nicotinamide (Sigma-Aldrich, cat. N0636), 1X B-27 supplement (Thermo Fisher Scientific, cat. 17504044), 1X N-2 supplement (Thermo Fisher Scientific, cat. 17502048), 10 microM Y-27632 dihydrochloride (Tocris Bioscience, cat. 1254), and 50 ng/mL human EGF recombinant protein (Thermo Fisher Scientific, cat. PHG0311). The 485176-168-R4-J1-PDC line was cultured in Panc media, which includes all 6C/Colon 1B media components plus 100 ng/mL human FGF-10 (Thermo Fisher Scientific, cat. 100-26), 500 nM SB-431542 (Selleckchem, cat. S1067), and gastrin (Tocris, cat. 3006).
[…]

[1] = second compound 0.0316 µM, first compound 0.0316 µM
[2] = second compound 0.0316 µM, first compound 0.1 µM
[3] = second compound 0.0316 µM, first compound 0.316 µM
[4] = second compound 0.0316 µM, first compound 1 µM
[5] = second compound 0.0316 µM, first compound 3.16 µM
[6] = second compound 0.0316 µM, first compound 10 µM
[7] = second compound 0.1 µM, first compound 0.0316 µM
[8] = second compound 0.1 µM, first compound 0.1 µM
[9] = second compound 0.1 µM, first compound 0.316 µM
[10] = second compound 0.1 µM, first compound 1 µM
[11] = second compound 0.1 µM, first compound 3.16 µM
[12] = second compound 0.1 µM, first compound 10 µM
[13] = second compound 0.316 µM, first compound 0.0316 µM
[14] = second compound 0.316 µM, first compound 0.1 µM
[15] = second compound 0.316 µM, first compound 0.316 µM
[16] = second compound 0.316 µM, first compound 1 µM
[17] = second compound 0.316 µM, first compound 3.16 µM
[18] = second compound 0.316 µM, first compound 10 µM
[19] = second compound 1 µM, first compound 0.0316 µM
[20] = second compound 1 µM, first compound 0.1 µM
[21] = second compound 1 µM, first compound 0.316 µM
[22] = second compound 1 µM, first compound 1 µM
[23] = second compound 1 µM, first compound 3.16 µM
[24] = second compound 1 µM, first compound 10 µM
[25] = second compound 3.16 µM, first compound 0.0316 µM
[26] = second compound 3.16 µM, first compound 0.1 µM
[27] = second compound 3.16 µM, first compound 0.316 µM
[28] = second compound 3.16 µM, first compound 1 µM
[29] = second compound 3.16 µM, first compound 3.16 µM
[30] = second compound 3.16 µM, first compound 10 µM
[31] = second compound 10 µM, first compound 0.0316 µM
[32] = second compound 10 µM, first compound 0.1 µM
[33] = second compound 10 µM, first compound 0.316 µM
[34] = second compound 10 µM, first compound 1 µM
[35] = second compound 10 µM, first compound 3.16 µM
[36] = second compound 10 µM, first compound 10 µM
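Further: spheroids exposed to the agents for seven days before readout.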
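Wherever viability, T/C is given: percent viability relative to DMSO vehicle control wells = 100%.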

COc1ccc([C@@H](O)c2cc(-c3ncnc4cc(N5CCOCC5)ccc34)c(F)cc2Cl)nn1 + CN(C)c1ccc(Nc2c3ccc(NC(=O)CCN4CCCC4)cc3nc3cc(NC(=O)CCN4CCCC4)ccc23)cc1
IC50 (second compound 0.0316 µM): > 10 µM
IC50 (second compound 0.1 µM): > 10 µM
IC50 (second compound 0.316 µM): 9.57 µM
IC50 (second compound 1 µM): > 10 µM
IC50 (second compound 3.16 µM): > 10 µM
IC50 (second compound 10 µM): > 10 µM
viability, T/C [1]: 105%
viability, T/C [2]: 116%
viability, T/C [3]: 104%
viability, T/C [4]: 96.6%
viability, T/C [5]: 85.9%
viability, T/C [6]: 72.5%
viability, T/C [7]: 105%
viability, T/C [8]: 124%
viability, T/C [9]: 98.3%
viability, T/C [10]: 108%
viability, T/C [11]: 106%
viability, T/C [12]: 61.6%
viability, T/C [13]: 96.8%
viability, T/C [14]: 94.5%
viability, T/C [15]: 90%
viability, T/C [16]: 106%
viability, T/C [17]: 96.4%
viability, T/C [18]: 48.1%
viability, T/C [19]: 124%
viability, T/C [20]: 111%
viability, T/C [21]: 106%
viability, T/C [22]: 106%
viability, T/C [23]: 92.6%
viability, T/C [24]: 59.1%
viability, T/C [25]: 96.5%
viability, T/C [26]: 126%
viability, T/C [27]: 113%
viability, T/C [28]: 93.1%
viability, T/C [29]: 117%
viability, T/C [30]: 68.5%
viability, T/C [31]: 123%
viability, T/C [32]: 112%
viability, T/C [33]: 97.5%
viability, T/C [34]: 106%
viability, T/C [35]: 88.9%
viability, T/C [36]: 50.8%

O=C(c1cc(Cc2n[nH]c(=O)c3ccccc23)ccc1F)N1CCN(C(=O)C2CC2)CC1 + CN(C)c1ccc(Nc2c3ccc(NC(=O)CCN4CCCC4)cc3nc3cc(NC(=O)CCN4CCCC4)ccc23)cc1
IC50 (second compound 0.0316 µM): > 10 µM
IC50 (second compound 0.1 µM): > 10 µM
IC50 (second compound 0.316 µM): > 10 µM
IC50 (second compound 1 µM): > 10 µM
IC50 (second compound 3.16 µM): > 10 µM
IC50 (second compound 10 µM): > 10 µM
viability, T/C [1]: 81.9%
viability, T/C [2]: 88.2%
viability, T/C [3]: 94%
viability, T/C [4]: 92.7%
viability, T/C [5]: 89.4%
viability, T/C [6]: 78.1%
viability, T/C [7]: 78.9%
viability, T/C [8]: 78.1%
viability, T/C [9]: 85.4%
viability, T/C [10]: 96.8%
viability, T/C [11]: 90.7%
viability, T/C [12]: 80.9%
viability, T/C [13]: 95.6%
viability, T/C [14]: 89.1%
viability, T/C [15]: 87.5%
viability, T/C [16]: 82.8%
viability, T/C [17]: 96.1%
viability, T/C [18]: 85.5%
viability, T/C [19]: 87.9%
viability, T/C [20]: 95.2%
viability, T/C [21]: 96%
viability, T/C [22]: 101%
viability, T/C [23]: 106%
viability, T/C [24]: 80.2%
viability, T/C [25]: 79.7%
viability, T/C [26]: 86.9%
viability, T/C [27]: 99.9%
viability, T/C [28]: 91.1%
viability, T/C [29]: 95.8%
viability, T/C [30]: 68.1%
viability, T/C [31]: 96.2%
viability, T/C [32]: 92.3%
viability, T/C [33]: 82.8%
viability, T/C [34]: 89.2%
viability, T/C [35]: 87.6%
viability, T/C [36]: 95%
